According to patent US7612211B2, “Benzimidazole TRPV1 inhibitors” (Janssen Pharmaceutica N.V., priority 2006, dated 2009):
pIC50: −log10 of the molar value.

Biological target: T1, hTRPV1 (Homo sapiens, UniProt Q8NER1)
T1 construct: expressed in transfected cells; host or cells: HEK293
Assay: Human TRPV1 (hTRPV1) functional assay, FLIPR intracellular Ca2+, capsaicin challenge
Format: cell-based
Settings: HEK293 cells expressing hTRPV1, capsaicin 0.030 μM challenge; for pIC50: derived from a variety of test concentrations, read-out: IC50 value (symbol c); for inhibition at 0.2 µM: test concentration of 0.2 μm, read-out: percent inhibition (symbol b)
Description: The functional activity of the test compounds was determined by measuring changes in intracellular calcium concentration using a Ca^++-sensitive fluorescent dye and FLIPR™ technology. Increases in Ca^++ concentration were readily detected upon challenge with capsaicin.
HEK293 cells expressing hTRPV1 were grown on poly-D-lysine coated 384 well black-walled plates (BD 354663) and 1 day later loaded with Calcium 3 Dye for 35 min at 37° C., 5% CO2 and then for 25 min at room temperature, and subsequently tested for agonist-induced increases in intracellular Ca^2+ levels using FLIPR™ technology. Cells were challenged with test compounds (at varying concentrations) and intracellular Ca^2+ was measured for 5 min prior to the addition of capsaicin to all wells to achieve a final concentration of 0.030 μM eliciting ˜80% maximal response.
EC50 or IC50 values were determined from concentration-response studies, which were generated using the average of quadruplicate wells for each data point. The symbol “a” represents percent inhibition obtained at a test concentration of 0.5 μm; the symbol “b” represents percent inhibition obtained at a test concentration of 0.2 μm; the symbol “c” represents an IC50 value (nM) derived from a variety of test concentrations. The term “NA” means that the result is not applicable for a particular compound.

T1 sequence (Q8NER1 whole entry): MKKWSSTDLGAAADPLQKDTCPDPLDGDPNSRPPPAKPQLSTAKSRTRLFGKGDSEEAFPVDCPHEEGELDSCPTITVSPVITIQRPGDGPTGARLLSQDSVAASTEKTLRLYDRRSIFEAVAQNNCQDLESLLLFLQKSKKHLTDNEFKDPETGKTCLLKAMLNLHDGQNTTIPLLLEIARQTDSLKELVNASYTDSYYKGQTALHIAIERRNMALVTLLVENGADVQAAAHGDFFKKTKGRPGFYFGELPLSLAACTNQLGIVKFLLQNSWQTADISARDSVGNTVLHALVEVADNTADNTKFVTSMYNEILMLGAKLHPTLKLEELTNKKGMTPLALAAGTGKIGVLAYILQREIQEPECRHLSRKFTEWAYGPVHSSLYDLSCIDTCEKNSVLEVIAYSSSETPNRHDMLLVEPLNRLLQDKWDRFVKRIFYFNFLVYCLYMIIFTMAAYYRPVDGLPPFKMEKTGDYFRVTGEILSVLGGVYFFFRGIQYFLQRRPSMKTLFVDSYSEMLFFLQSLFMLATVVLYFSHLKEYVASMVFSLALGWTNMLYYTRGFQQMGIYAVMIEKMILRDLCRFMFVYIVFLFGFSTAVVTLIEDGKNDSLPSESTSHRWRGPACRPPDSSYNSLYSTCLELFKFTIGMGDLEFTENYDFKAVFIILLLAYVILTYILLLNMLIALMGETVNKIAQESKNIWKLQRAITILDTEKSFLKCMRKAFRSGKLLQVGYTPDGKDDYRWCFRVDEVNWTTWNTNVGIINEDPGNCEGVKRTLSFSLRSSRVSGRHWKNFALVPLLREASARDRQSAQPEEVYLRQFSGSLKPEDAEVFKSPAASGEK

Row | pIC50 | inhibition at 0.2 µM [%] | SMILES
1 | 8.31 | 98 | NS(=O)(=O)c1ccccc1-c1ccc2[nH]c(CSc3ccc(C(F)(F)F)cc3)nc2c1 [Cpd 41, 2-[2-(4-trifluoromethyl-phenylsulfanylmethyl)-1H-benzoimidazol-5-yl]-benzenesulfonamide]
2 | 7.12 | 93 | NS(=O)(=O)c1ccccc1-c1ccc2[nH]c(CSc3ccc(Cl)cc3)nc2c1 [Cpd 42, 2-[2-(4-chloro-phenylsulfanylmethyl)-1H-benzoimidazol-5-yl]-benzenesulfonamide]
3 | 6.91 | 87 | NS(=O)(=O)c1ccccc1-c1ccc2[nH]c(CSc3ccc(OC(F)(F)F)cc3)nc2c1 [Cpd 43, 2-[2-(4-trifluoromethoxy-phenylsulfanylmethyl)-1H-benzoimidazol-5-yl]-benzenesulfonamide]
4 | – | 12 | NS(=O)(=O)c1ccccc1-c1ccc2[nH]c(CS(=O)(=O)c3ccc(C(F)(F)F)cc3)nc2c1 [Cpd 44, 2-[2-(4-trifluoromethyl-benzenesulfonylmethyl)-1H-benzoimidazol-5-yl]-benzenesulfonamide]
5 | – | 2 | NS(=O)(=O)c1ccccc1-c1ccc2[nH]c(CS(=O)(=O)c3ccc(Cl)cc3)nc2c1 [Cpd 45, 2-[2-(4-chloro-benzenesulfonylmethyl)-1H-benzoimidazol-5-yl]-benzenesulfonamide]
6 | – | 5 | NS(=O)(=O)c1ccccc1-c1ccc2[nH]c(CS(=O)(=O)c3ccc(OC(F)(F)F)cc3)nc2c1 [Cpd 46, 2-[2-(4-trifluoromethoxy-benzenesulfonylmethyl)-1H-benzoimidazol-5-yl]-benzenesulfonamide]
7 | – | 46 | NS(=O)(=O)c1ccccc1-c1ccc2[nH]c(CNc3ccc(C(F)(F)F)cc3)nc2c1 [Cpd 47, 2-{2-[(4-trifluoromethyl-phenylamino)-methyl]-1H-benzoimidazol-5-yl}-benzenesulfonamide]
8 | – | 41 | NS(=O)(=O)c1ccccc1-c1ccc2[nH]c(CNc3ccc(OC(F)(F)F)cc3)nc2c1 [Cpd 48, 2-{2-[(4-trifluoromethoxy-phenylamino)-methyl]-1H-benzoimidazol-5-yl}-benzenesulfonamide]
9 | 6.97 | 89 | CC(=O)c1ccccc1-c1ccc2[nH]c(COc3ccc(C(F)(F)F)cc3)nc2c1 [Cpd 49, 1-{2-[2-(4-trifluoromethyl-phenoxymethyl)-1H-benzoimidazol-5-yl]-phenyl}-ethanone]
10 | 7.46 | 99 | CNS(=O)(=O)c1ccccc1-c1ccc2[nH]c(COc3cccc(C(F)(F)F)c3)nc2c1 [Cpd 52, N-methyl-2-[2-(3-trifluoromethyl-phenoxymethyl)-1H-benzoimidazol-5-yl]-benzenesulfonamide]
11 | 7.17 | 93 | CS(=O)(=O)c1ccccc1-c1ccc2[nH]c(COc3cccc(C(F)(F)F)c3)nc2c1 [Cpd 75, 5-(2-methanesulfonyl-phenyl)-2-(3-trifluoromethyl-phenoxymethyl)-1H-benzoimidazole]

More lines, now with the values behind:

Row | SMILES | pIC50 | inhibition at 0.2 µM [%]
12 | CC(C)(O)c1ccccc1-c1ccc2[nH]c(COc3ccccc3)nc2c1 [Cpd 50, 2-[2-(2-phenoxymethyl-1H-benzoimidazol-5-yl)-phenyl]-propan-2-ol] | 7.04 | 81
13 | CNS(=O)(=O)c1ccccc1-c1ccc2[nH]c(COc3ccc(C(C)C)cc3)nc2c1 [Cpd 51, 2-[2-(4-isopropyl-phenoxymethyl)-1H-benzoimidazol-5-yl]-N-methyl-benzenesulfonamide] | 8.11 | 100
14 | CS(=O)(=O)c1ccccc1-c1ccc2[nH]c(COc3ccccc3)nc2c1 [Cpd 53, 5-(2-methanesulfonyl-phenyl)-2-phenoxymethyl-1H-benzoimidazole] | – | 17
15 | CS(=O)(=O)c1ccccc1-c1ccc2[nH]c(COc3ccccc3F)nc2c1 [Cpd 54, 2-(2-fluoro-phenoxymethyl)-5-(2-methanesulfonyl-phenyl)-1H-benzoimidazole] | – | 4
16 | CS(=O)(=O)c1ccccc1-c1ccc2[nH]c(COc3cccc(F)c3)nc2c1 [Cpd 55, 2-(3-fluoro-phenoxymethyl)-5-(2-methanesulfonyl-phenyl)-1H-benzoimidazole] | – | 20
17 | CS(=O)(=O)c1ccccc1-c1ccc2[nH]c(COc3ccc(F)cc3)nc2c1 [Cpd 56, 2-(4-fluoro-phenoxymethyl)-5-(2-methanesulfonyl-phenyl)-1H-benzoimidazole] | – | 31
18 | CS(=O)(=O)c1ccccc1-c1ccc2[nH]c(COc3ccccc3Cl)nc2c1 [Cpd 57, 2-(2-chloro-phenoxymethyl)-5-(2-methanesulfonyl-phenyl)-1H-benzoimidazole] | – | 14
19 | CS(=O)(=O)c1ccccc1-c1ccc2[nH]c(COc3cccc(Cl)c3)nc2c1 [Cpd 58, 2-(3-chloro-phenoxymethyl)-5-(2-methanesulfonyl-phenyl)-1H-benzoimidazole] | – | 22
20 | CS(=O)(=O)c1ccccc1-c1ccc2[nH]c(COc3ccc(Cl)cc3)nc2c1 [Cpd 59, 2-(4-chloro-phenoxymethyl)-5-(2-methanesulfonyl-phenyl)-1H-benzoimidazole] | 7.74 | 87
21 | CS(=O)(=O)c1ccccc1-c1ccc2[nH]c(COc3cccc(Br)c3)nc2c1 [Cpd 60, 2-(3-bromo-phenoxymethyl)-5-(2-methanesulfonyl-phenyl)-1H-benzoimidazole] | – | 49
22 | CS(=O)(=O)c1ccccc1-c1ccc2[nH]c(COc3ccc(Br)cc3)nc2c1 [Cpd 61, 2-(4-bromo-phenoxymethyl)-5-(2-methanesulfonyl-phenyl)-1H-benzoimidazole] | 7.18 | 77
23 | CS(=O)(=O)c1ccccc1-c1ccc2[nH]c(COc3ccc(F)cc3F)nc2c1 [Cpd 62, 2-(2,4-difluoro-phenoxymethyl)-5-(2-methanesulfonyl-phenyl)-1H-benzoimidazole] | – | 24
24 | CS(=O)(=O)c1ccccc1-c1ccc2[nH]c(COc3ccc(F)c(F)c3)nc2c1 [Cpd 63, 2-(3,4-difluoro-phenoxymethyl)-5-(2-methanesulfonyl-phenyl)-1H-benzoimidazole] | – | 37
25 | CS(=O)(=O)c1ccccc1-c1ccc2[nH]c(COc3ccc(Cl)cc3Cl)nc2c1 [Cpd 64, 2-(2,4-dichloro-phenoxymethyl)-5-(2-methanesulfonyl-phenyl)-1H-benzoimidazole] | – | 58
26 | CS(=O)(=O)c1ccccc1-c1ccc2[nH]c(COc3ccc(Cl)c(Cl)c3)nc2c1 [Cpd 65, 2-(3,4-dichloro-phenoxymethyl)-5-(2-methanesulfonyl-phenyl)-1H-benzoimidazole] | 7.24 | 91
27 | CS(=O)(=O)c1ccccc1-c1ccc2[nH]c(COc3ccc(Cl)cc3F)nc2c1 [Cpd 66, 2-(4-chloro-2-fluoro-phenoxymethyl)-5-(2-methanesulfonyl-phenyl)-1H-benzoimidazole] | 7.09 | 85
28 | CS(=O)(=O)c1ccccc1-c1ccc2[nH]c(COc3ccc(F)c(Cl)c3)nc2c1 [Cpd 67, 2-(3-chloro-4-fluoro-phenoxymethyl)-5-(2-methanesulfonyl-phenyl)-1H-benzoimidazole] | – | 70
29 | CS(=O)(=O)c1ccccc1-c1ccc2[nH]c(COc3cc(F)c(F)c(F)c3)nc2c1 [Cpd 68, 5-(2-methanesulfonyl-phenyl)-2-(3,4,5-trifluoro-phenoxymethyl)-1H-benzoimidazole] | – | 59
30 | CS(=O)(=O)c1ccccc1-c1ccc2[nH]c(COc3cc(F)c(F)cc3F)nc2c1 [Cpd 69, 5-(2-methanesulfonyl-phenyl)-2-(2,4,5-trifluoro-phenoxymethyl)-1H-benzoimidazole] | – | 21
31 | CS(=O)(=O)c1ccccc1-c1ccc2[nH]c(COc3ccc(F)c(F)c3F)nc2c1 [Cpd 70, 5-(2-methanesulfonyl-phenyl)-2-(2,3,4-trifluoro-phenoxymethyl)-1H-benzoimidazole] | – | 33
32 | CS(=O)(=O)c1ccccc1-c1ccc2[nH]c(COc3cccc(C(F)(F)F)c3F)nc2c1 [Cpd 71, 2-(2-fluoro-3-trifluoromethyl-phenoxymethyl)-5-(2-methanesulfonyl-phenyl)-1H-benzoimidazole] | – | 43
33 | CS(=O)(=O)c1ccccc1-c1ccc2[nH]c(COc3ccc(F)c(C(F)(F)F)c3)nc2c1 [Cpd 72, 2-(4-fluoro-3-trifluoromethyl-phenoxymethyl)-5-(2-methanesulfonyl-phenyl)-1H-benzoimidazole] | 7.52 | 96
34 | CS(=O)(=O)c1ccccc1-c1ccc2[nH]c(COc3cc(C(F)(F)F)cc(C(F)(F)F)c3)nc2c1 [Cpd 73, 2-(3,5-bis-trifluoromethyl-phenoxymethyl)-5-(2-methanesulfonyl-phenyl)-1H-benzoimidazole] | – | 33
35 | CS(=O)(=O)c1ccccc1-c1ccc2[nH]c(COc3ccccc3C(F)(F)F)nc2c1 [Cpd 74, 5-(2-methanesulfonyl-phenyl)-2-(2-trifluoromethyl-phenoxymethyl)-1H-benzoimidazole] | – | 60
